This assay has as its system IL-4 stimulated CD23 upregulation in human Ramos B cells (JAK-1/JAK-3, Stat-6). In words: Assay for Ramos B-Cell Line Stimulated with IL-4 (CD23 upregulation, FACS). The assay is classed as cell-based. An excerpt:
One means of assaying for such inhibition is detection of the effect of the 2,4-pyrimidinediamine compounds on the upregulation of downstream gene products. In the Ramos/IL4 assay, B-cells are stimulated with the cytokine Interleukin-4 (IL-4) leading to the activation of the JAK/Stat pathway through phosphorylation of the JAK family kinases, JAK1 and JAK3, which in turn phosphorylate and activate the transcription factor Stat-6. […] To study the effect of inhibitors (e.g., the 2,4-substituted pyrimindinediamine compounds described herein) on the JAK1 and JAK3 kinases, human Ramos B cells are stimulated with human IL-4. 20 to 24 hours post stimulation, cells are stained for upregulation of CD23 and analyzed using flow cytometry (FACS).
B-cells stimulated with cytokine Interleukin-4 (IL-4) activate the JAK/Stat pathway through phosphorylation of the JAK family kinases, JAK-1 and JAK-3, which in turn phosphorylate and activate the transcription factor Stat-6. […] To study the effect of inhibitors on the JAK family kinases, human Ramos B cells are stimulated with human IL-4.
Cells were maintained at a density of 3.5×10^5. The day before the experiment, Ramos B-cells were diluted to 3.5×10^5 cells/mL to ensure that they were in a logarithmic growth phase.
Cells were spun down and suspended in RPMI with 5% serum. 5×10^4 cells were used per point in a 96-well tissue culture plate. Cells were pre-incubated with compound or DMSO (Sigma-Aldrich, St. Louis, Mo., Cat No. D2650) vehicle control for 1 hour in a 37° C. incubator. Cells were then stimulated with IL-4 (Peprotech Inc., Rocky Hill, N.J., Cat No. 200-04) for a final concentration of 50 units/mL for 20-24 hours. […] Detection was performed using a BD LSR I System Flow Cytometer, purchased from Becton Dickinson Biosciences of San Jose, Calif.

[1] abbreviates: Table III Example 3, sodium salt.

Each structure is given as a SMILES string. Where a name gives a salt, the structure may show the parent alone.

As for `Cc1cnc(Nc2cccc(S(=O)(=O)NC(=O)CNC(=O)OC(C)(C)C)c2)nc1Nc1cccc(CNS(=O)(=O)C2CC2)c1` [Compound I-141, N2-{3-N-[2-(t-butoxycarbonylamino)-1-oxoethyl]aminosulfonyl}phenyl-N4-(3-cyclopropylsulfonylaminomethyl)phenyl-5-methyl-2,4-pyrimidinediamine sodium salt], the concentration for half-maximal inhibition (IC50) under setting [1] came to 4710 nM.

Turning to `Cc1cnc(Nc2cccc(S(=O)(=O)NC(=O)CNC(=O)OCc3ccccc3)c2)nc1Nc1cccc(CNS(=O)(=O)C2CC2)c1` [Compound I-142, N2-{3-N-[2-(benzoxycarbonylamino)-1-oxoethyl]aminosulfonyl}phenyl-N4-(3-cyclopropylsulfonylaminomethyl)phenyl-5-methyl-2,4-pyrimidinediamine], under “Table III Example 3”, the IC50 was determined as 5620 nM.

Take `Cc1cnc(Nc2cccc(S(=O)(=O)NC(=O)CNC(=O)OCc3ccccc3)c2)nc1Nc1cccc(CNS(=O)(=O)C2CC2)c1` [Compound I-143, N2-{3-N-[2-(benzoxycarbonylamino)-1-oxoethyl]aminosulfonyl}phenyl-N4-(3-cyclopropylsulfonylaminomethyl)phenyl-5-methyl-2,4-pyrimidinediamine sodium salt]: under setting [1], the IC50 was 7290 nM.

`Cc1cnc(Nc2cccc(S(=O)(=O)NC(=O)[C@@H](NC(=O)OCc3ccccc3)C(C)C)c2)nc1Nc1cccc(CNS(=O)(=O)C2CC2)c1` [Compound I-144, N2-[3-N-(Cbz-L-Val)aminosulfonyl]phenyl-N4-(3-cyclopropylsulfonylaminomethyl)phenyl-5-methyl-2,4-pyrimidinediamine] gave a 50% inhibitory concentration (IC50) (Table III Example 3) of 7720 nM.

Take `Cc1cnc(Nc2cccc(S(=O)(=O)NC3(C(=O)O)CCCC3)c2)nc1Nc1cccc(CNS(=O)(=O)C2CC2)c1` [Compound I-145, N2-[3-N-(cycloleucine)aminosulfonyl]phenyl-N4-(3-cyclopropylsulfonylaminomethyl)phenyl-5-methyl-2,4-pyrimidinediamine hydrogen chloride salt]: under “Table III Example 3”, the midpoint of inhibition, the IC50, lay at 8540 nM.

Where the note is “Table III Example 3”, `Cc1cnc(Nc2cccc(S(=O)(=O)N[C@H](C(=O)O)C(C)C)c2)nc1Nc1cccc(CNS(=O)(=O)C2CC2)c1` [Compound I-146, N2-[3-N-(L-Val)aminosulfonyl]phenyl-N4-(3-cyclopropylsulfonylaminomethyl)phenyl-5-methyl-2,4-pyrimidinediamine hydrogen chloride salt] showed a concentration for half-maximal inhibition (IC50) of 12300 nM.

For the setting “Table III Example 3”, `Cc1cnc(Nc2cccc(S(=O)(=O)NC(=O)C3(NC(=O)OC(C)(C)C)CCCC3)c2)nc1Nc1cccc(CNS(=O)(=O)C2CC2)c1` [Compound I-148, N2-[3-N-(Boc-cycloleucine)aminosulfonyl]phenyl-N4-(3-cyclopropylsulfonylaminomethyl)phenyl-5-methyl-2,4-pyrimidinediamine] had an IC50 of 16200 nM.

In the case of `Cc1cnc(Nc2cccc(S(=O)(=O)Nc3cccnc3)c2)nc1Nc1ccc(CNS(=O)(=O)C2CC2)cc1` [Compound I-174, N4-(4-cyclopropylsulfonylaminomethyl)phenyl-5-methyl-N2-[3-(3-pyridyl)aminosulfonyl]phenyl-2,4-pyrimidinediamine], it took 1120 nM to reach half-maximal inhibition (Table III Example 3) (IC50).

For the setting “Table III Example 3”, `CC(=O)NS(=O)(=O)c1cccc(Nc2ncc(C)c(Nc3cccc(CN(C(C)=O)S(=O)(=O)C4CC4)c3)n2)c1` [Compound I-193, N2-(3-acetamidosulfonyl)phenyl-N4-[3-(N-acetyl-N-cyclopropylsulfonyl)aminomethyl]phenyl-5-methyl-2,4-pyrimidinediamine] gave a half-inhibitory concentration (IC50) of 1890 nM.

With `CC(=O)NS(=O)(=O)c1ccc(Nc2ncc(C)c(Nc3ccc(CN(C(C)=O)S(=O)(=O)C4CC4)cc3)n2)cc1` [Compound I-194, N2-(4-acetamidosulfonyl)phenyl-N4-[4-(N-acetyl-N-cyclopropylsulfonyl)aminomethyl]phenyl-5-methyl-2,4-pyrimidinediamine], the midpoint of inhibition (Table III Example 3), the IC50, lay at 1650 nM.

Take `CC(=O)NS(=O)(=O)c1cccc(Nc2ncc(C)c(Nc3cccc(CN(C(C)=O)S(=O)(=O)C4CC4)c3)n2)c1` [Compound I-196, N2-(3-acetamidosulfonyl)phenyl-N4-[3-(N-acetyl-N-cyclopropylsulfonyl)aminomethyl]phenyl-5-methyl-2,4-pyrimidinediamine sodium salt]: the IC50 under setting [1] is 2050 nM.

With `CC(=O)NS(=O)(=O)c1ccc(Nc2ncc(C)c(Nc3ccc(CN(C(C)=O)S(=O)(=O)C4CC4)cc3)n2)cc1` [Compound I-197, N2-(4-acetamidosulfonyl)phenyl-N4-[4-(N-acetyl-N-cyclopropylsulfonyl)aminomethyl]phenyl-5-methyl-2,4-pyrimidinediamine sodium salt], under setting [1], the IC50 is 1550 nM.

As for `Cc1cnc(Nc2cccc(S(=O)(=O)NC(=O)C(C)C)c2)nc1Nc1cccc(CN(C(=O)C(C)C)S(=O)(=O)C2CC2)c1` [Compound I-198, N4-[3-(N-cyclopropylsulfonyl-N-isobutyryl)aminomethyl]phenyl-N2-(3-isobutyrylaminosulfonyl)phenyl-5-methyl-2,4-pyrimidinediamine], inhibition (Table III Example 3) was half-maximal at 2050 nM (IC50).

The molecule `Cc1cnc(Nc2ccc(S(=O)(=O)NC(=O)C(C)C)cc2)nc1Nc1ccc(CN(C(=O)C(C)C)S(=O)(=O)C2CC2)cc1` [Compound I-199, N4-[4-(N-cyclopropylsulfonyl-N-isobutyryl)aminomethyl]phenyl-N2-(4-isobutyrylaminosulfonyl)phenyl-5-methyl-2,4-pyrimidinediamine] gave an IC50 (Table III Example 3) of 1270 nM.

In the case of `Cc1cnc(Nc2cccc(S(=O)(=O)NC(=O)C(C)C)c2)nc1Nc1cccc(CN(C(=O)C(C)C)S(=O)(=O)C2CC2)c1` [Compound I-200, N4-[3-(N-cyclopropylsulfonyl-N-isobutyryl)aminomethyl]phenyl-N2-(3-isobutyrylaminosulfonyl)phenyl-5-methyl-2,4-pyrimidinediamine sodium salt], under setting [1], the IC50 stood at 2310 nM.

For `Cc1cnc(Nc2ccc(S(=O)(=O)NC(=O)C(C)C)cc2)nc1Nc1ccc(CN(C(=O)C(C)C)S(=O)(=O)C2CC2)cc1` [Compound I-201, N4-[4-(N-cyclopropylsulfonyl-N-isobutyryl)aminomethyl]phenyl-N2-(4-isobutyrylaminosulfonyl)phenyl-5-methyl-2,4-pyrimidinediamine sodium salt], the IC50 under setting [1] came to 1210 nM.

`CCCC(=O)NS(=O)(=O)c1cccc(Nc2ncc(C)c(Nc3cccc(CN(C(=O)CCC)S(=O)(=O)C4CC4)c3)n2)c1` [Compound I-203, N2-(3-butyrylaminosulfonyl)phenyl-N4-[3-(N-butyryl-N-cyclopropylsulfonyl)aminomethyl]phenyl-5-methyl-2,4-pyrimidinediamine] showed a half-inhibitory concentration (IC50) (Table III Example 3) of 3020 nM.

Consider `CCCC(=O)NS(=O)(=O)c1ccc(Nc2ncc(C)c(Nc3ccc(CN(C(=O)CCC)S(=O)(=O)C4CC4)cc3)n2)cc1` [Compound I-204, N2-(4-butyrylaminosulfonyl)phenyl-N4-[4-(N-butyryl-N-cyclopropylsulfonyl)aminomethyl]phenyl-5-methyl-2,4-pyrimidinediamine], for which the half-inhibitory concentration (IC50) (Table III Example 3) is 1040 nM.

On to `CCCC(=O)NS(=O)(=O)c1cccc(Nc2ncc(C)c(Nc3cccc(CN(C(=O)CCC)S(=O)(=O)C4CC4)c3)n2)c1` [Compound I-205, N2-(3-butyrylaminosulfonyl)phenyl-N4-[3-(N-butyryl-N-cyclopropylsulfonyl)aminomethyl]phenyl-5-methyl-2,4-pyrimidinediamine sodium salt], for which the IC50 under setting [1] turned out to be 3440 nM.

Take `CCCC(=O)NS(=O)(=O)c1ccc(Nc2ncc(C)c(Nc3ccc(CN(C(=O)CCC)S(=O)(=O)C4CC4)cc3)n2)cc1` [Compound I-206, N2-(4-butyrylaminosulfonyl)phenyl-N4-[4-(N-butyryl-N-cyclopropylsulfonyl)aminomethyl]phenyl-5-methyl-2,4-pyrimidinediamine sodium salt]: the IC50 under setting [1] turned out to be 946 nM.

`CCCCCC(=O)NS(=O)(=O)c1cccc(Nc2ncc(C)c(Nc3cccc(CN(C(=O)CCCCC)S(=O)(=O)C4CC4)c3)n2)c1` [Compound I-218, N4-[3-(N-cyclopropylsulfonyl-N-hexanoyl)aminomethyl]phenyl-N2-(3-hexanoylaminosulfonyl)phenyl-5-methyl-2,4-pyrimidinediamine]: the half-inhibitory concentration (IC50) (Table III Example 3) was 3800 nM.

For `CCCCCC(=O)NS(=O)(=O)c1cccc(Nc2ncc(C)c(Nc3cccc(CN(C(=O)CCCCC)S(=O)(=O)C4CC4)c3)n2)c1` [Compound I-219, N4-[3-(N-cyclopropylsulfonyl-N-hexanoyl)aminomethyl]phenyl-N2-(3-hexanoylaminosulfonyl)phenyl-5-methyl-2,4-pyrimidinediamine sodium salt], the IC50 under setting [1] amounted to 2600 nM.

Consider `CCCCC(=O)NS(=O)(=O)c1cccc(Nc2ncc(C)c(Nc3cccc(CN(C(=O)CCCC)S(=O)(=O)C4CC4)c3)n2)c1` [Compound I-220, N4-[3-(N-cyclopropylsulfonyl-N-valeryl)aminomethyl]phenyl-5-methyl-N2-(3-valerylaminosulfonyl)phenyl-2,4-pyrimidinediamine], for which the IC50 (Table III Example 3) amounted to 2020 nM.

The IC50 is the midpoint of a concentration-inhibition curve.

The values are drawn from patent US9481654B2, “Compositions and methods for inhibition of the JAK pathway” (Rigel Pharmaceuticals, Inc., priority 2006, dated 2016).
